Laboratory results: the CATMoS acute toxicity set (Mansouri et al. 2021)

experiment: rat acute oral toxicity; conditions: in vivo
Text: […]The data set underlying the modeling effort for this project was initially compiled by NICEATM and U.S. EPA’s CCTE. Briefly, LD50 data were collected from rat acute oral systemic toxicity tests, including limit tests, ranges/confidence intervals, and discrete LD50 values. The full data set included 21,200 LD50 entries for 15,688 substances. […] Data were reviewed to ensure that LD50 values with obvious errors in the extracted data such as unit conversion errors (e.g., comma and decimal separator misplacements) were either fixed or removed. After this review, 16,209 LD50 values remained. Many of the chemicals represented had multiple LD50 entries, requiring that a single representative value per Chemical Abstracts Service Registry Number (CASRN) identifier be defined to facilitate modeling efforts. Based on ATWG feedback and to define the representative LD50 as a protective value while accounting for the distribution across multiple LD50s, the median of the lowest quartile was computed using only discrete LD50 values (omitting limit test data and range and confidence interval data). A detailed summary of the data compilation is available online on the NICEATM webpage dedicated to the collaborative modeling project (NTP 2020).
[…][…] For categorical designations, limit test and range/confidence interval LD50 data were integrated wherever possible. As such, the number of chemicals with end point values/calls varies across the modeling end points (Table 3) based on whether chemicals had representative LD50 values and/or other data. If a chemical had both, the representative value was used to determine categorical calls rather than limit test data. Some data were useable only for certain end points and categories depending on the thresholds. For example, ranges that spanned multiple hazard categories were considered only for the binary (very toxic/nontoxic) end points and omitted from rendering a determination for hazard category assignment.
[…]The final data set comprising 11,992 chemicals was split into training and evaluation sets […], respectively. This process was performed semirandomly by ordering chemicals based on the five end points (categorical and continuous LD50 values) and partitioning every fourth record into the evaluation set accordingly. This approach was taken to ensure an equivalent distribution of the LD50 values and the different hazard categories between the training and the evaluation sets without supervised sampling of the chemicals based on structures (Figure 1A). The sources of the chemical structures were also kept equivalent between the two sets, with chemical structures obtained from DSSTox, being the highest quality, representing over 75% of each set (Figure 1B).

Q: With CCOC(=O)C1(c2ccccc2)CCN(C)CC1 as the molecule, how does the LD50 read?
A: The LD50 was 162 mg/kg.

Q: Which LD50 does the source give for CC(C)=CC1C(C(=O)OCc2coc(Cc3ccccc3)c2)C1(C)C (stereo not given) here?
A: The LD50 was 1240 mg/kg.

Q: Which LD50 does the source give for C1CCSC1 here?
A: Its LD50 is 1750 mg/kg.

Q: Which LD50 does the source give for CCC(C)(CCC(C)C)C(=O)OOC(C)(C)C (stereo not given) here?
A: Its LD50 is 8080 mg/kg.

Q: For ClC(Cl)=C(Cl)C(Cl)=C(Cl)Cl, which LD50 is on record?
A: Its LD50 is 82 mg/kg.

Q: With C/C(=N\NC(=O)Nc1cc(F)cc(F)c1)c1ncccc1C(=O)O as the molecule, how does the LD50 read?
A: The LD50 was 3300 mg/kg.

Q: Which LD50 does the source give for NC(=O)c1c(F)cccc1F here?
A: The LD50 was 1080 mg/kg.

Q: For O=C(CCCN1CCC(O)(c2ccc(Cl)cc2)CC1)c1ccc(F)cc1, which LD50 is on record?
A: Its LD50 is 128 mg/kg.

Q: Which LD50 does the source give for C=CC(=O)OCC(O)COCCCCOCC(O)COC(=O)C=C (stereo not given) here?
A: Its LD50 is 200 mg/kg.

Q: For Oc1ccccc1-c1ccccc1, which LD50 is on record?
A: The LD50 was 718 mg/kg.

Q: With CCC(CC)Nc1c([N+](=O)[O-])cc(C)c(C)c1[N+](=O)[O-] as the molecule, how does the LD50 read?
A: Its LD50 is 1050 mg/kg.

Q: Which LD50 does the source give for O=C(Nc1ccc(Cl)c(Cl)c1)C1CC1 here?
A: The LD50 was 215 mg/kg.

Q: Which LD50 does the source give for COc1ccc(OC)c([N+](=O)[O-])c1 here?
A: Its LD50 is 2120 mg/kg.

Q: For O=C(O)COc1nc(Cl)c(Cl)cc1Cl, which LD50 is on record?
A: Its LD50 is 630 mg/kg.

Q: For CC(=O)C1=C(C)[C@@H]2C[C@@]3(C1)[C@H](C)CC[C@H]3C2(C)C, which LD50 is on record?
A: The LD50 was 4500 mg/kg.

Q: With CC1(C)C(=O)N(Br)C(=O)N1Br as the molecule, how does the LD50 read?
A: Its LD50 is 250 mg/kg.

Q: For CCOP(=S)(OCC)SCCSCC, which LD50 is on record?
A: The LD50 was 1.9 mg/kg.

Q: Which LD50 does the source give for COc1nn(CSP(=S)(OC)OC)c(=O)s1 here?
A: The LD50 was 20 mg/kg.

Q: Which LD50 does the source give for CCOP(=S)(OCC)SCSC(C)(C)C here?
A: Its LD50 is 1.6 mg/kg.

Q: For OC[C@@H](O)[C@@H](O)CO, which LD50 is on record?
A: Its LD50 is 13100 mg/kg.

Q: Which LD50 does the source give for COCCCN here?
A: Its LD50 is 598 mg/kg.

Q: For ClC(Cl)(Cl)C(Cl)(Cl)Cl, which LD50 is on record?
A: Its LD50 is 4460 mg/kg.

Q: Which LD50 does the source give for CCN(CC)c1nc(C)cc(OP(=S)(OC)OC)n1 here?
A: The LD50 was 1250 mg/kg.

Q: With CCC[N+](C)(C)CC[N+](C)(C)CCO as the molecule, how does the LD50 read?
A: The LD50 was 1850 mg/kg.

Q: For Clc1cccc(Cl)c1Cl, which LD50 is on record?
A: The LD50 was 756 mg/kg.

Q: With O=[N+]([O-])c1ccc(Cl)c([N+](=O)[O-])c1 as the molecule, how does the LD50 read?
A: The LD50 was 640 mg/kg.

Q: Which LD50 does the source give for CN=C=S here?
A: Its LD50 is 55 mg/kg.

Q: With CCCCOCC(C)O (stereo not given) as the molecule, how does the LD50 read?
A: Its LD50 is 2500 mg/kg.

Q: With ClC=CCCl as the molecule, how does the LD50 read?
A: Its LD50 is 110 mg/kg.

Q: With Cc1ccc(C)c(C)c1 as the molecule, how does the LD50 read?
A: Its LD50 is 3280 mg/kg.

Q: Which LD50 does the source give for Cc1cccc(C)c1N here?
A: The LD50 was 840 mg/kg.

Q: With O=C(O)C1C2CCC(O2)C1C(=O)O (stereo not given) as the molecule, how does the LD50 read?
A: The LD50 was 38 mg/kg.

Q: For O=P(OCCCl)(OCCCl)OCCCl, which LD50 is on record?
A: Its LD50 is 466 mg/kg.

Q: Which LD50 does the source give for COc1nc(NC(C)C)nc(NC(C)C)n1 here?
A: The LD50 was 503 mg/kg.

Q: For OCC(CO)(CBr)CBr, which LD50 is on record?
A: The LD50 was 1880 mg/kg.

Q: Which LD50 does the source give for CCCCOCCOC(C)=O here?
A: Its LD50 is 1880 mg/kg.

Q: With CCOC(=O)CC(=O)C(F)(F)F as the molecule, how does the LD50 read?
A: Its LD50 is 765 mg/kg.

Q: With Cc1cc(Cl)ccc1OCCCC(=O)O as the molecule, how does the LD50 read?
A: The LD50 was 680 mg/kg.

Q: Which LD50 does the source give for C[N+](C)(C)CCCl here?
A: Its LD50 is 600 mg/kg.

Q: For O=Cc1ccccc1, which LD50 is on record?
A: The LD50 was 1300 mg/kg.

Q: For Cn1cnc2c1c(=O)[nH]c(=O)n2C, which LD50 is on record?
A: The LD50 was 950 mg/kg.

Q: For CCOC(=O)CC(O)(CC(=O)OCC)C(=O)OCC, which LD50 is on record?
A: Its LD50 is 5900 mg/kg.

Q: For O=C(O)c1c(Cl)ccc(Cl)c1Cl, which LD50 is on record?
A: Its LD50 is 650 mg/kg.

Q: With CCCCOP(C)(=O)CCC(C#N)OC(C)=O (stereo not given) as the molecule, how does the LD50 read?
A: The LD50 was 253 mg/kg.

Q: Which LD50 does the source give for CNC1=Nc2ccc(Cl)cc2C(c2ccccc2)=[N+]([O-])C1 here?
A: The LD50 was 392 mg/kg.

Q: For CN(C)CCN(C)C, which LD50 is on record?
A: The LD50 was 268 mg/kg.

Q: With CCC(C(c1ccc(Cl)cc1)c1ccc(Cl)cc1)[N+](=O)[O-] (stereo not given) as the molecule, how does the LD50 read?
A: The LD50 was 300 mg/kg.

Q: Which LD50 does the source give for COc1ccccc1NC(=O)CC(C)=O here?
A: The LD50 was 1600 mg/kg.

Q: For O=C(OC1CCCCC1)c1ccccc1O, which LD50 is on record?
A: Its LD50 is 3030 mg/kg.

Q: For CCN(CC)N=O, which LD50 is on record?
A: Its LD50 is 220 mg/kg.

Q: With CN(C)c1ccccc1 as the molecule, how does the LD50 read?
A: Its LD50 is 951 mg/kg.

Q: Which LD50 does the source give for CCC12COCN1COC2 here?
A: Its LD50 is 3670 mg/kg.

Q: Which LD50 does the source give for CCNc1nc(Cl)nc(NC(C)(C)C#N)n1 here?
A: The LD50 was 149 mg/kg.

Q: With N#CCNC(=O)c1cnccc1C(F)(F)F as the molecule, how does the LD50 read?
A: The LD50 was 884 mg/kg.

Q: With ClCc1ccccc1 as the molecule, how does the LD50 read?
A: Its LD50 is 440 mg/kg.

Q: For O=c1oc2ccccc2c(O)c1C1CC(c2ccc(OCc3ccc(C(F)(F)F)cc3)cc2)Cc2ccccc21 (stereo not given), which LD50 is on record?
A: Its LD50 is 0.25 mg/kg.

Q: Which LD50 does the source give for C=CCOC(=O)OCCOCCOC(=O)OCC=C here?
A: Its LD50 is 350 mg/kg.

Q: With CC(C)c1ccc(-c2ccccc2)cc1 as the molecule, how does the LD50 read?
A: The LD50 was 4570 mg/kg.

Q: Which LD50 does the source give for CCC(C)=NO[Si](ON=C(C)CC)(ON=C(C)CC)ON=C(C)CC here?
A: Its LD50 is 2450 mg/kg.

Q: With O=c1oc2ccccc2c(O)c1C1CC(c2ccc(-c3ccccc3)cc2)Cc2ccccc21 (stereo not given) as the molecule, how does the LD50 read?
A: The LD50 was 0.925 mg/kg.

Q: Which LD50 does the source give for CCOCn1c(-c2ccc(Cl)cc2)c(C#N)c(Br)c1C(F)(F)F here?
A: Its LD50 is 560 mg/kg.

Q: For CCCCCCCCCc1ccc(OP(Oc2ccc(CCCCCCCCC)cc2)Oc2ccc(CCCCCCCCC)cc2)cc1, which LD50 is on record?
A: Its LD50 is 10000 mg/kg.

Q: For C=CCOC(=O)C(=C)C, which LD50 is on record?
A: Its LD50 is 70 mg/kg.

Q: For CCS(=O)CCSP(=O)(OC)OC (stereo not given), which LD50 is on record?
A: The LD50 was 48 mg/kg.

Q: Which LD50 does the source give for C1=CC2CCC1C2 here?
A: The LD50 was 9580 mg/kg.

Q: Which LD50 does the source give for Clc1ccccc1 here?
A: The LD50 was 1110 mg/kg.

Q: For C=C(C)C(=O)OCCO, which LD50 is on record?
A: The LD50 was 5050 mg/kg.

Q: With CC1(C)CC(=O)CC(C)(C)N1 as the molecule, how does the LD50 read?
A: Its LD50 is 1330 mg/kg.

Q: With CC(C)(C#N)C(C)(C)C#N as the molecule, how does the LD50 read?
A: The LD50 was 27 mg/kg.

Q: For O=C1OC(O)C(C(Cl)Cl)=C1Cl (stereo not given), which LD50 is on record?
A: The LD50 was 128 mg/kg.
